How the values were obtained:
TGF beta = settings: cited from earlier work
[1] = SCOT trial outcomes / event free survival analysis; format: in vivo, human; settings: CYC arm, median split, P=0.04
Source text: (§1) The SCOT trial compared the therapeutic outcomes of myeloablative CD34+selected autologous HSCT and CYC in severe diffuse SSc patients (for study design details of SCOT trial, see Sullivan K. M. et al., N Engl J Med. 2018 Jan. 4; 378(1): 35-47. doi: 10.1056/nejmoa1703327. [PMID: 29298160]). The trial provided gene expression in the peripheral blood cells (PBCs) from 30 SSc patients who completed HSCT treatment, 33 patients who completed CYC treatment, and 28 healthy controls (Franks J. M. et al., Ann Rheum Dis. 2020 Sep. 15; annrheumdis-2020-217033. doi: 10.1136/annrheumdis-2020-217033. Online ahead of print. [PMID: 32933919]). In the current study, Applicant analyzed the longitudinal expression profile of SCOT patients from baseline to 54 months. 20 month and 26 month data were merged (referred to as 20/26 months), and 48 month and 54 month data were merged (referred to as 48/54 months).
Survival analysis was performed using the “survival” R package based on gene level data. Only the baseline gene expression data were considered for these analyses. Patients were divided into two groups using the median expression value of a given gene as cutoff Briefly, high expression group is patients' gene expression greater than or equal to the median value and low expression group is patients' gene expression lower than the median value. […]

Interleukin 6 (IL6) = test: SCOT trial longitudinal PBC gene expression: IL6; format: in vivo, human; settings: PBCs of SSc patients
Source text: as §1
(§2) To reduce the statistical bias of downstream comparisons, Applicant applied seasonal adjustment and linear interpolation to impute those missing time points. The “imputeTS” R package was used. Patients with only baseline gene expression data and no longitudinal samples were not imputed (n=20; 32% of participants; 10 for cyclophosphamide and 10 for transplant).

ACVR1C = test: SCOT trial longitudinal PBC gene expression: ACVR1C; format: in vivo, human; settings: PBCs of SSc patients, baseline to 48/54 months, imputed data
Source text: as §1, §2

fresolimumab: anti-TGF beta monoclonal antibody therapy
SSc biomarkers (TGF beta; SSc patients): decreased
clinical symptoms (TGF beta; SSc patients): improved
trial result (TGF beta; SSc): promising results

O=P1(N(CCCl)CCCl)NCCCO1 (stereo not drawn) [CYC, cyclophosphamide]
hazard ratio (HR) for EFS, higher vs lower baseline CLCF1 expression [1]: 3.15
IL6 expression over time (Interleukin 6 (IL6)): increased
ACVR1C expression over time (ACVR1C): flat trend

From patent publication US20230374591A1, “METHODS AND AGENTS FOR TREATING, PREVENTING, DIAGNOSING, AND EVALUATING THERAPY FOR FIBROTIC, AUTOIMMUNE, AND INFLAMMATORY CONDITIONS” (THE TRUSTEES OF DARTMOUTH COLLEGE, priority 2020, published 2023)
